According to patent publication US11827628B2, “Compositions and methods for inhibition of the JAK pathway” (Rigel Pharmaceuticals, Inc., priority 2005, dated 2023):
Counter-ions that a name gives are not always drawn.

Assays:
[1] = test system: up-regulation of ICAM-1 (CD54) by IFNγ in A549 lung epithelial cells; experiment: A549 Epithelial Line Stimulated with IFNγ (ICAM-1 surface expression, FACS); assay type: cell-based, human; details: Homo sapiens, A549, A549 cells stimulated with IFNγ, ICAM-1 expression by FACS; read-out: IC50, Example 43
Excerpt: The activity of the compounds of the invention may additionally be characterized by assaying the effect of the 2,4-substituted pyrimidinediamine compounds described herein on A549 lung epithelial cells and U937 cells. A549 lung epithelial cells and U937 cells up-regulate ICAM-1 (CD54) surface expression in response to a variety of different stimuli. Therefore, using ICAM-1 expression as readout, test compound effects on different signaling pathways can be assessed in the same cell type. Stimulation with IL-1β through the IL-1β receptor activates the TRAF6/NFκB pathway resulting in up-regulation of ICAM-1. IFNγ induces ICAM-1 up-regulation through activation of the JAK1/JAK2 pathway. The up-regulation of ICAM-1 can be quantified by flow cytometry across a compound dose curve and EC50, values are calculated. An exemplary assays of this type are described in greater detail in Examples 43 and 44
A549 lung epithelial cells up-regulate ICAM-1 (CD54) surface expression in response to a variety of different stimuli. Therefore, using ICAM-1 expression as readout, compound effects on different signaling pathways can be assessed in the same cell type. IFNγ up-regulates ICAM-1 through activation of the JAK/Stat pathway. In this example, the up-regulation of ICAM-1 by IFNγ was assessed.
The A549 lung epithelial carcinoma cell line originated from the American Type Culture Collection. Routine culturing was with F12K media (Mediatech Inc., Lenexa, KS, Cat. No. 10-025-CV) with 10% fetal bovine serum, 100 I.U. penicillin and […] streptomycin (complete F12k media). Cells were incubated in a humidified atmosphere of 5% CO2 at 37° C. Prior to use in the assay, A549 cells were washed with PBS and trypsinized (Mediatech Inc., Cat. No. 25-052-CI) to lift the cells. The trypsin cell suspension was neutralized with complete F12K media and centrifuged to pellet the cells. The cell pellet was resuspended in complete F12K media at a concentration of 2.0×10^5/mL. Cells were seeded at 20,000 per well, 100 μL total volume, in a flat bottom tissue culture plate and allowed to adhere overnight.
On day two, A549 cells were pre-incubated with a 2,4-substituted pyrimidinediamine test compound or DMSO (control) (Sigma-Aldrich, St. Louis, MO, Catalog No. D2650) for 1 hour. The cells were then stimulated with IFNγ (75 ng/mL) (Peprotech Inc., Rocky Hill, NJ, Cat. No. 300-02) and allowed to incubate for 24 hours. The final test compound dose range was 30 μM to 14 nM in 200 μL F12K media containing 5% FBS, 0.3% DMSO.
On day three, the cell media was removed and the cells were washed with 200 μL PBS (phosphate buffered saline). Each well was trypsinized to dissociate the cells, then neutralized by addition of 200 μL complete F12K media. Cells were pelleted and stained with an APC conjugated mouse anti-human ICAM-1 (CD54) (BD Pharmingen, San Diego, CA, Catalog #559771) antibody for 20 minutes at 4° C. Cells were washed with ice cold FACS buffer (PBS+2% FBS) and surface ICAM-1 expression was analyzed by flow cytometry. Detection was performed using a BD LSR I System Flow Cytometer, purchased from BD Biosciences of San Jose, California Events were gated for live scatter and the geometric mean was calculated (Becton-Dickinson CellQuest software version 3.3, Franklin Lakes, NJ). Geometric means were plotted against the compound concentration to generate a dose response curve.

Primary human T-cells = experiment: Primary Human T-Cell Proliferation Assay Stimulated with IL-2 (CellTiter-Glo); assay type: cell-based; details: Homo sapiens, T-cell, primary human T-cells stimulated with IL-2, proliferation; read-out: IC50, Example 42
Outline: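 Peripheral blood T-cells pre-activated with anti-CD3/anti-CD28 and IL-2 were washed free of IL-2, then cultured with compound plus IL-2 for 72 hours at 37° C, duplicate wells. Viability read as ATP by CellTiter-Glo luminescence; IC50 reported.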

| Compound | IC50 [1] | IC50 (Primary human T-cells) |
| --- | --- | --- |
| NS(=O)(=O)c1cc(Nc2ncc(F)c(Nc3ccc(O)cc3)n2)ccc1F [VI-100, N2-(3-Aminosulfonyl-4-fluorophenyl)-5-fluoro-N4-(4-hydroxyphenyl)-2,4-pyrimidinediamine] | 9180 nM | 74.3 nM |
| COc1ccc(Nc2nc(Nc3ccc(C)c(S(N)(=O)=O)c3)ncc2F)nc1N [VII-9, N2-(3-Aminosulfonyl-4-methylphenyl)-N4-[2-amino-3-methoxypyrid-6-yl]-5-fluoro-2,4-pyrimidinediamine] | 17100 nM | 2720 nM |
| COc1ccc(Nc2nc(Nc3cc(C)c(Cl)c(S(N)(=O)=O)c3)ncc2F)cc1Cl [VI-17, N2-(3-Aminosulfonyl-4-chloro-5-methylphenyl)-N4-(3-chloro-4-methoxyphenyl)-5-fluoro-2,4-pyrimidinediamine] | 6420 nM | 244 nM |
| Cc1ccc(Nc2ncc(F)c(Nc3ccc4oc(C#N)cc4c3)n2)cc1S(N)(=O)=O [VII-53, N2-(3-Aminosulfonyl-4-methylphenyl)-N4-(2-cyanobenzofuran-5-yl)-5-fluoro-2,4-pyrimidinediamine] | 5460 nM | 484 nM |
| COc1ccc(Nc2nc(Nc3ccc(N4CCN(C)CC4)c(S(N)(=O)=O)c3)ncc2F)cc1Cl [VI-116, N2-[3-Aminosulfonyl-4-(4-methylpiperazine-1-yl)phenyl]-N4-(3-chloro-4-methoxyphenyl)-5-fluoro-2,4-pyrimidinediamine] | 8100 nM | 174 nM |
| C#CCOc1ccc(Nc2nc(Nc3ccc(C)c(S(N)(=O)=O)c3)ncc2F)cc1Cl [VI-59, N2-(3-Aminosulfonyl-4-methylphenyl)-N4-[3-chloro-4-(prop-2-ynyloxy)phenyl]-5-fluoro-2,4-pyrimidinediamine] | 4980 nM | 340 nM |
| Cc1ccc(Nc2ncc(F)c(Nc3ccc(O)cc3)n2)cc1S(N)(=O)=O [VI-102, N2-(3-Aminosulfonyl-4-methylphenyl)-5-fluoro-N4-[4-hydroxyphenyl]-2,4-pyrimidinediamine] | 14700 nM | 135 nM |
| Cc1ccc(Nc2ncc(F)c(Nc3ccc4ncccc4c3)n2)cc1S(N)(=O)=O [VII-69, N2-(3-Aminosulfonyl-4-methylphenyl)-5-fluoro-N4-(quinolin-6-yl)-2,4-pyrimidinediamine] | 7500 nM | 696 nM |
| NS(=O)(=O)c1ccc(Nc2ncc(F)c(Nc3ccc(CCCCO)cc3)n2)cc1 [VI-88, N2-(4-Aminosulfonylphenyl)-5-fluoro-N4-[4-(4-hydroxybutyl)phenyl]-2,4-pyrimidinediamine] | 24700 nM | 1190 nM |
| NS(=O)(=O)c1cccc(Nc2ncc(F)c(Nc3ccc(Cc4ccncc4)cc3)n2)c1 [III-128, N2-(3-Aminosulfonylphenyl)-5-fluoro-N4-[4-(4-pyridylmethyl)phenyl]-2,4-pyrimidinediamine p-Toluenesulfonic Acid Salt] | 28100 nM | 139 nM |
| Cc1ccc(Nc2ncc(F)c(Nc3ccc4c(c3)N(CC#N)C(=O)CS4)n2)cc1S(N)(=O)=O [Compound V-13, N2-(3-Aminosulphonyl4-methylphenyl)-5-fluoro-N4-(3-oxo-4-cyanomethyl-benzo[1,4]thiazin-6-yl)-2,4-pyrimidinediamine] | 6870 nM | 468 nM |
| Cc1ccc2cc(Nc3nc(Nc4ccc(C)c(S(N)(=O)=O)c4)ncc3F)ccc2n1 [VII-71, N2-(3-Aminosulfonyl-4-methylphenyl)-5-fluoro-N4-(2-methylquinolin-6-yl)-2,4-pyrimidinediamine] | 5470 nM | 569 nM |

Continued, in another order:

| IC50 [1] | Compound | IC50 (Primary human T-cells) |
| --- | --- | --- |
| 6480 nM | NS(=O)(=O)c1cccc(Nc2ncc(F)c(Nc3ccc4ncccc4c3)n2)c1 [VII-70, N2-(3-Aminosulfonylphenyl)-5-fluoro-N4-(quinolin-6-yl)-2,4-pyrimidinediamine] | 375 nM |
| 30300 nM | N#CCc1c[nH]c2ccc(Nc3nc(Nc4cccc(S(N)(=O)=O)c4)ncc3F)cc12 [IX-13, N2-(3-Aminosulfonylphenyl)-N4-(3-cyanomethyl-1H-indol-5-yl)-5-fluoro-2,4-pyrimidinediamine] | 430 nM |
| 9930 nM | Cc1ccc2cc(Nc3nc(Nc4cccc(S(N)(=O)=O)c4)ncc3F)ccc2n1 [VII-72, N2-(3-Aminosulfonylphenyl)-5-fluoro-N4-(2-methylquinolin-6-yl)-2,4-pyrimidinediamine] | 415 nM |
| 7300 nM | NS(=O)(=O)c1cccc(Nc2ncc(F)c(Nc3ccc(CCCF)cc3)n2)c1 [VI-83, N2-(3-Aminosulfonylphenyl)-5-fluoro-N4-[4-(3-fluoropropyl)phenyl]-2,4-pyrimidinediamine] | 293 nM |
| 4440 nM | NS(=O)(=O)c1cccc(Nc2ncc(F)c(Nc3ccc(CCCO)cc3)n2)c1 [VI-86, N2-(3-Aminosulfonylphenyl)-5-fluoro-N4-[4-(3-hydroxypropyl)phenyl]-2,4-pyrimidinediamine] | 178 nM |
| 5000 nM | N#CCN1C(=O)COc2ccc(Nc3nc(Nc4cccc(S(N)(=O)=O)c4)ncc3F)cc21 [Compound V-7, N2-(3-Aminosulphonylphenyl)-5-fluoro-N4-(3-oxo-4-cyanomethyl-benz[1,4]oxazin-6-yl]-2,4-pyrimidinediamine] | 127 nM |
| 1700 nM | COc1ccc(Nc2nc(Nc3cccc(S(N)(=O)=O)c3)ncc2Br)cc1Cl [VI-26, N2-(3-aminosulfonylphenyl)-5-bromo-N4-(3-chloro-4-methoxyphenyl)-2,4-pyrimidinediamine] | 28.9 nM |
